According to patent US9301922B1, “Stable high strength pharmaceutical composition of levoleucovorin” (APROFOL AG, priority 2013, dated 2016):

Experiment: Solubility in water (observation)
Assay type: physicochemical
Method: 4.0 g of levoleucovorin calcium (6.7 mmol) are suspended in 100 ml water. The slurry is heated up to about 40° C. to obtain a clear solution. 1.0 g of zinc acetate dihydrate (4.6 mmol) in 10 ml water is slowly added. A precipitate is formed immediately. After one day the precipitate is separated from the mother liquor.

Solubility in water: almost insoluble in water
SMILES: Nc1nc2c(c(=O)[nH]1)N(C=O)[C@@H](CNc1ccc(C(=O)N[C@@H](CCC(=O)[O-])C(=O)[O-])cc1)CN2.[Zn+2] [levoleucovorin zinc]
